Data published in patent publication US9084719B2, “Compositions and method for treating infection in cattle and swine” (Intervet Inc., priority 2003, dated 2015).
Read-outs that look alike come from different tables or passages of the source.

Assay: Plasma levels of florfenicol / pharmacokinetic analysis in cattle after subcutaneous administration
Type: in vivo
Conditions: bovine, sc, 40 mg/kg, subcutaneous florfenicol solution, 40 mg per kg of body weight
Description: Twenty-four head of cattle were used in the study as described below and were administered the formulations of the present invention. Serial blood samples were drawn at time 0 prior to dosing, then at 0.5, 1, 3, 6, 9, 12, 24, 36, 48, 60 and 72 hours post injection. The animals received one of the following treatment regimens.
The study was carried out in bovines of approximately 6 months of age or more that weigh about 125 kg or more. Selection was based on health status appearance, tractability and body weight. […] Animals that had received medication or have participated in another study in the previous 14 days were excluded from this study.
Plasma Levels of florfenicol were taken as follows: Approximately 10 mL of blood was collected from each calf by jugular venipuncture into a Vacutainer® tube containing sodium EDTA and processed for plasma.
Pharmacokinetic Analysis was carried out as follows: Plasma concentrations of florfenicol was reported in the appropriate units (i.e. μg/ml or ng/mL). Plasma florfenicol concentration versus time data was graphically presented for each individual animal, and as mean concentrations for the overall sample population.

## CS(=O)(=O)c1ccc([C@@H](O)[C@@H](CF)NC(=O)C(Cl)Cl)cc1 [florfenicol, D-(threo)-1-p-methylsulfonyl phenyl-2-dichloroacetamido-3-fluoro-1-propanol]
FIG. 1, six cattle, read-out: Mean peak concentration (Cmax)
  Cmax: 6370 ng/mL
FIG. 1, six cattle, read-out: Mean time to peak concentration (Tmax)
  Tmax: 5.5 h
FIG. 1, six cattle, read-out: Range of peak concentration (Cmax)
  Cmax: 5080 to 7000 ng/mL
FIG. 1, six cattle, read-out: Range of time to peak concentration (Tmax)
  Tmax: 3 to 6 h
FIG. 2, six cattle, read-out: Mean peak concentration (Cmax)
  Cmax: 4250 ng/mL
FIG. 2, six cattle, read-out: Mean time to peak concentration (Tmax)
  Tmax: 3.67 h
FIG. 2, six cattle, read-out: Range of peak concentration (Cmax)
  Cmax: 3460 to 5000 ng/mL
FIG. 2, six cattle, read-out: Range of time to peak concentration (Tmax)
  Tmax: 1 to 9 h
